Where two headings read alike, the source gives them in different places.
Legend:
[1] = test system: diabetic preclinical models; conditions: compared with pioglitazone, literature; cited from earlier work
CYP2B6 = experiment: CYP induction in cryopreserved human hepatocytes; assay type: in vitro ADME; conditions: 50 μM, similar assay
CYP3A4 = experiment: CYP induction in cryopreserved human hepatocytes; assay type: in vitro ADME; conditions: 10 μM, similar assay
bladder urothelium = experiment: Bladder epithelium hyperplasia in rat tissue; assay type: in vivo; conditions: treated rats; pioglitazone 14.5 and 145 mg/Kg/day, MIN-102 25, 100 and 150 mg/Kg/day
2C8 = target: T1, 2C8 (Homo sapiens, UniProt P10632); conditions: Sahi et al.; cited from earlier work
T1 sequence (P10632 1-490): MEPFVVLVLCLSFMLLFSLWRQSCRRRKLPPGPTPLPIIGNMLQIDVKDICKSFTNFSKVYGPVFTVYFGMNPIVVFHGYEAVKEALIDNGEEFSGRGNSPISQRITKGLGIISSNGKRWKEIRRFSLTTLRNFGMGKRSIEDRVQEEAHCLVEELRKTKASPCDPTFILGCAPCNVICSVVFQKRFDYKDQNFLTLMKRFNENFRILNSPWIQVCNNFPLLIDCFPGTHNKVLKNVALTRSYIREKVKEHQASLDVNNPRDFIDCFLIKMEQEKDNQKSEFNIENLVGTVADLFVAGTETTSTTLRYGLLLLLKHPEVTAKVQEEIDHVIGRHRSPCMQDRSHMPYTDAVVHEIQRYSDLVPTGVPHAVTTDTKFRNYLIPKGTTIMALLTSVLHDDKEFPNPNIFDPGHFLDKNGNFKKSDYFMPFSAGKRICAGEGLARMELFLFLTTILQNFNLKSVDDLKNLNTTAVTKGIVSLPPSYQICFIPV

[2] = cited from earlier work; for AUC0-∞ mean: healthy subjects, single oral dose 45 mg
[3] = Eckland et al., Christensen et al.

SMILES	pharmacological activity [1]	induction in CYPB6 (CYP2B6)	induction in CYP3A4 (CYP3A4)	bladder epithelium hyperplasia (bladder urothelium)	IC50 (2C8)	Ki (2C8)	range in exposure (AUC) [2, 3]	variability (CV %) in clearance [2, 3]	AUC0-∞ mean ([2]; study a)	AUC0-∞ mean ([2]; study b)	AUC0-∞ mean ([2]; study c)
CC(=O)c1ccc(CCOc2ccc(CC3SC(=O)NC3=O)cc2)nc1 (stereo not drawn) [M-III, reference compound]	less active than pioglitazone	–	–	–	–	–	–	–	–	–	–
CC(O)c1ccc(CCOc2ccc(CC3SC(=O)NC3=O)cc2)nc1 (stereo not drawn) [(1), 5-[[4-[2-[5-(1-hydroxyethyl)pyridin-2-yl]ethoxy]phenyl]methyl]-1,3-thiazolidine-2,4-dione]	less active than pioglitazone	–	–	–	–	–	–	–	–	–	–
CCc1ccc(CCOc2ccc(CC3SC(=O)NC3=O)cc2)nc1 (stereo not drawn) [pioglitazone]	–	2.35 fold	4.79 fold	only observed in the pioglitazone group	9.38 µM	1.69 µM	up to 10 fold	40%-50%	13854 ng·h/mL	14458 ng·h/mL	14071 ng·h/mL
